Columns and labels:
Assay in all cases: KINOMEscan competition binding
Details in all cases: compound 10.0 µM
[1] = biological target: ACVRL1 (human) (UniProt P37023)
[2] = biological target: AKT3 (human) (UniProt Q9Y243)
[3] = biological target: AURKA (human) (UniProt O14965)
[4] = biological target: AURKC (human) (UniProt Q9UQB9)
[5] = biological target: BMPR2 (human) (UniProt Q13873)
[6] = biological target: BRSK2 (human) (UniProt Q8IWQ3)
[7] = biological target: CAMK1D (human) (UniProt Q8IU85)
[8] = biological target: CAMK2D (human) (UniProt Q13557)
[9] = biological target: CASK (human) (UniProt O14936)
[10] = biological target: CDC42BPB (human) (UniProt Q9Y5S2)
[11] = biological target: CHEK2 (human) (UniProt O96017)
[12] = biological target: CSK (human) (UniProt P41240)
[13] = biological target: DAPK2 (human) (UniProt Q9UIK4)
[14] = biological target: DCLK3 (human) (UniProt Q9C098)
[15] = biological target: EIF2AK1 (human) (UniProt Q9BQI3)
[16] = biological target: EPHA4 (human) (UniProt P54764)
[17] = biological target: FGFR4 (human) (UniProt P22455)
[18] = biological target: HIPK2 (human) (UniProt Q9H2X6)
[19] = biological target: HIPK3 (human) (UniProt Q9H422)
[20] = biological target: INSRR (human) (UniProt P14616)
[21] = biological target: LIMK1 (human) (UniProt P53667)
[22] = biological target: MAP3K12 (human) (UniProt Q12852)
[23] = biological target: MAP3K6 (human) (UniProt O95382)
[24] = biological target: MAP4K2 (human) (UniProt Q12851)
[25] = biological target: MAP4K5 (human) (UniProt Q9Y4K4)
[26] = biological target: MYLK (human) (UniProt Q15746)
[27] = biological target: NEK11 (human) (UniProt Q8NG66)
[28] = biological target: NEK4 (human) (UniProt P51957)
[29] = biological target: NEK9 (human) (UniProt Q8TD19)
[30] = biological target: PIM1 (human) (UniProt P11309)
[31] = biological target: PRKAA1 (human) (UniProt Q13131)
[32] = biological target: PRKCQ (human) (UniProt Q04759)
[33] = biological target: ROS1 (human) (UniProt P08922)
[34] = biological target: RPS6KB1 (human) (UniProt P23443)
[35] = biological target: SRC (human) (UniProt P12931)
[36] = biological target: SRPK1 (human) (UniProt Q96SB4)
[37] = biological target: STK32B (human) (UniProt Q9NY57)
[38] = biological target: STK39 (human) (UniProt Q9UEW8)
[39] = biological target: TNIK (human) (UniProt Q9UKE5)
[40] = biological target: FER (human) (UniProt P16591)
FER (human), sequence (P16591 whole entry, looked up): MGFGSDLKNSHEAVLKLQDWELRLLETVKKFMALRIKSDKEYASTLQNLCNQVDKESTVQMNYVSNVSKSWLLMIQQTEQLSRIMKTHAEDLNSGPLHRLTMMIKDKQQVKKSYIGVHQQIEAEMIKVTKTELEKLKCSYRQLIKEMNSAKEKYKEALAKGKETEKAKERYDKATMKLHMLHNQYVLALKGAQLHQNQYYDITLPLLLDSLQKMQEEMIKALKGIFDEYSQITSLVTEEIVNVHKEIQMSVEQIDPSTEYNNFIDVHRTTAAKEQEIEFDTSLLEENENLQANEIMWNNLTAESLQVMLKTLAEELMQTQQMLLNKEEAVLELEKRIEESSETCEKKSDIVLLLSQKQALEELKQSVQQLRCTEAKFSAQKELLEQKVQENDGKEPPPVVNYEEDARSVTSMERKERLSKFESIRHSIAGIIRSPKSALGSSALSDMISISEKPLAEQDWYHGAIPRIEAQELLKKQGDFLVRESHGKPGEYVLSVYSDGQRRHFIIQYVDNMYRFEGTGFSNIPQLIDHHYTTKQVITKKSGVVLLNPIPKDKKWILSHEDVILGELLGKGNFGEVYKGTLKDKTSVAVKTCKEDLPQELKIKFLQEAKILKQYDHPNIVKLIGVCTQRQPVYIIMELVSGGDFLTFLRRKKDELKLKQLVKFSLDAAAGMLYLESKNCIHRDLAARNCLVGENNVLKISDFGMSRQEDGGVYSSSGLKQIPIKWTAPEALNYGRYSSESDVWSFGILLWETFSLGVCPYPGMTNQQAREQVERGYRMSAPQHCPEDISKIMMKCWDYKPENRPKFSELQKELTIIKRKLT

NEK11 (human), sequence (Q8NG66 whole entry, looked up): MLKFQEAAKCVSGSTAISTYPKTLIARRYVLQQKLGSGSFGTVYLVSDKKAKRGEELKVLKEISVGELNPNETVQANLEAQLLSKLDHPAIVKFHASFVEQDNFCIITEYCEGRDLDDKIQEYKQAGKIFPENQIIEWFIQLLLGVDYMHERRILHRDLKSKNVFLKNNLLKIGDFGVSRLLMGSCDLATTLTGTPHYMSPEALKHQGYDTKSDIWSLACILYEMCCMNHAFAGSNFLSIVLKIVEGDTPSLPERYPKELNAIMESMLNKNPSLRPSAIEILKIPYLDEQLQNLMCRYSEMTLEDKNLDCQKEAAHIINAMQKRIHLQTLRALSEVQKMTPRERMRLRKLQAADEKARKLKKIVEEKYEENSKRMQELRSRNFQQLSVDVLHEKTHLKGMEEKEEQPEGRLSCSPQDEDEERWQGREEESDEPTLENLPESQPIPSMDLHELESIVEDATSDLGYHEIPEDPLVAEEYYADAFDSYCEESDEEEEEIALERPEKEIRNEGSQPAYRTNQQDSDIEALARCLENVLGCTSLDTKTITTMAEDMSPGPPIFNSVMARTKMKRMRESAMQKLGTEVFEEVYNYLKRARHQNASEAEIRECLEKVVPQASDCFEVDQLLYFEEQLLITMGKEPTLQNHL
AURKA (human), sequence (O14965 whole entry, looked up): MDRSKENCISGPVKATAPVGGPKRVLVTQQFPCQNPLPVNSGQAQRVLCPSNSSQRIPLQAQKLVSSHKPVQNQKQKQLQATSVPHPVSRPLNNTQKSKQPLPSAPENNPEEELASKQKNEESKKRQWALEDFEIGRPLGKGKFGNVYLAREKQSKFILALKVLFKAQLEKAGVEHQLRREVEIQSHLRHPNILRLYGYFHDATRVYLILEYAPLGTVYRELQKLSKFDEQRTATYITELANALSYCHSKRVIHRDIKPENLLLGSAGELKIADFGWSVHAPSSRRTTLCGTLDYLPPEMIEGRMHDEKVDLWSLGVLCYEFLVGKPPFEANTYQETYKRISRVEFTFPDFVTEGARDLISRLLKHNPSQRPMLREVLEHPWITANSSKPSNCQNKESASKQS
EIF2AK1 (human), sequence (Q9BQI3 whole entry, looked up): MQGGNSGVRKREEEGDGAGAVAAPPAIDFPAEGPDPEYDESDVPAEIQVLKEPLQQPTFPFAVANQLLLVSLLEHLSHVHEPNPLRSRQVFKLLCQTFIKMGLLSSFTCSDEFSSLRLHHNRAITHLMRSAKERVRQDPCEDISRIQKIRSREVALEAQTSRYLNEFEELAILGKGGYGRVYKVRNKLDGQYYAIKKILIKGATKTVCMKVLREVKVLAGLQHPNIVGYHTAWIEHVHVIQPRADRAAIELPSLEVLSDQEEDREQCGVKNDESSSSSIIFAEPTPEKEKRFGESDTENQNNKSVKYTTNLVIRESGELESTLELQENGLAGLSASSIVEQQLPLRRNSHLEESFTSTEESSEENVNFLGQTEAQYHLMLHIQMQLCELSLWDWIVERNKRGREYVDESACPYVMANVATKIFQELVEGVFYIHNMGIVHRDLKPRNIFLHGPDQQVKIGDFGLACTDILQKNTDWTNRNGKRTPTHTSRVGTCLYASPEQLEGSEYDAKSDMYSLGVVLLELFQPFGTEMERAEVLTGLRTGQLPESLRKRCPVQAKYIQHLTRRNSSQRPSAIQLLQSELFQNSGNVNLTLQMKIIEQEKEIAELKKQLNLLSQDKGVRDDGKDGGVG
CAMK2D (human), sequence (Q13557 whole entry, looked up): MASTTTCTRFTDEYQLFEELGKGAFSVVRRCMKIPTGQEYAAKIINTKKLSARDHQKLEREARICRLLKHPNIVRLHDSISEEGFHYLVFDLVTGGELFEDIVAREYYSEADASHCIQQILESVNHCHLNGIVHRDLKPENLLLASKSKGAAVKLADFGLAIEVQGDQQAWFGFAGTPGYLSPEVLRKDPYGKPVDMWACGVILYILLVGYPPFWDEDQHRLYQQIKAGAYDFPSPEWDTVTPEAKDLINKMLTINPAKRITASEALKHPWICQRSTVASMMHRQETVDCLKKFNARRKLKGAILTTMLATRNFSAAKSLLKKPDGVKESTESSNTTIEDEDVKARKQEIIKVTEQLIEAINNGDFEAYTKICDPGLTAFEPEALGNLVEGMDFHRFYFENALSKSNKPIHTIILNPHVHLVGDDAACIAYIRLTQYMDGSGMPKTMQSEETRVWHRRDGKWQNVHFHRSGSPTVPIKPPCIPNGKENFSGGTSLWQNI
PRKCQ (human), sequence (Q04759 whole entry, looked up): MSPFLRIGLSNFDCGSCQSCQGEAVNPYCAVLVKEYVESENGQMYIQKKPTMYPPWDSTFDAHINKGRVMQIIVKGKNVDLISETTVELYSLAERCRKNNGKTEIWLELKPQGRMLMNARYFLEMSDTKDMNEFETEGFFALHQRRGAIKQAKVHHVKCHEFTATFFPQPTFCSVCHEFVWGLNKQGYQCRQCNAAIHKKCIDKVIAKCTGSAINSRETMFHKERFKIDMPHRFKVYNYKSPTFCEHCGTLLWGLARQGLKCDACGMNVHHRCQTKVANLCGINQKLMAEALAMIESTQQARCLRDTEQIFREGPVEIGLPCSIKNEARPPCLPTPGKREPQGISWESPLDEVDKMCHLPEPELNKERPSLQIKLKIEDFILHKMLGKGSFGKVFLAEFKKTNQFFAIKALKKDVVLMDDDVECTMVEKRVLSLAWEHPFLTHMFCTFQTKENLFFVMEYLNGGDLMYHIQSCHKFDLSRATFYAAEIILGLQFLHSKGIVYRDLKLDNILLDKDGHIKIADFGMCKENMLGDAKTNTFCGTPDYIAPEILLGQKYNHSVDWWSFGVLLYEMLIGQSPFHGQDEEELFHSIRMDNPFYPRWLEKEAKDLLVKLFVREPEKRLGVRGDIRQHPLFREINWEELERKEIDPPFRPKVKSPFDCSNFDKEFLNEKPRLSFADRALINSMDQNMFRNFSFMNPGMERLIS
STK32B (human), sequence (Q9NY57 whole entry, looked up): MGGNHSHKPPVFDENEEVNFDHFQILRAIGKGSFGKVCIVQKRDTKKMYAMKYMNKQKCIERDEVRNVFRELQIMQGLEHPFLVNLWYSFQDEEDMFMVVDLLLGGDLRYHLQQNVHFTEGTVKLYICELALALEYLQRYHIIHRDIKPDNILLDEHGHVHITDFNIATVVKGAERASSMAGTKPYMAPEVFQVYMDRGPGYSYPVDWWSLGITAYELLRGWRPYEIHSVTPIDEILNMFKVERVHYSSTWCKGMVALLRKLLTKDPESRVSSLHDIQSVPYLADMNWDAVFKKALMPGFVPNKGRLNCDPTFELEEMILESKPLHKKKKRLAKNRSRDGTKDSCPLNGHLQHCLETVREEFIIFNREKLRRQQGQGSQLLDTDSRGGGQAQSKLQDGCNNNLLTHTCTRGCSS
AURKC (human), sequence (Q9UQB9 whole entry, looked up): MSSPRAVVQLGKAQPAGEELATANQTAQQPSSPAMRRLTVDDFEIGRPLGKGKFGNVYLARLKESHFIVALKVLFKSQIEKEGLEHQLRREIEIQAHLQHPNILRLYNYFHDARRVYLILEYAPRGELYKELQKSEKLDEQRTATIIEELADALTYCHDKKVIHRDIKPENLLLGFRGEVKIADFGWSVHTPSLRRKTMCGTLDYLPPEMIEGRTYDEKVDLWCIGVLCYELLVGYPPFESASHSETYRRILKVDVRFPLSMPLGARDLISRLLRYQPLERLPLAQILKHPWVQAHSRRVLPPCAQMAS
RPS6KB1 (human), sequence (P23443 whole entry, looked up): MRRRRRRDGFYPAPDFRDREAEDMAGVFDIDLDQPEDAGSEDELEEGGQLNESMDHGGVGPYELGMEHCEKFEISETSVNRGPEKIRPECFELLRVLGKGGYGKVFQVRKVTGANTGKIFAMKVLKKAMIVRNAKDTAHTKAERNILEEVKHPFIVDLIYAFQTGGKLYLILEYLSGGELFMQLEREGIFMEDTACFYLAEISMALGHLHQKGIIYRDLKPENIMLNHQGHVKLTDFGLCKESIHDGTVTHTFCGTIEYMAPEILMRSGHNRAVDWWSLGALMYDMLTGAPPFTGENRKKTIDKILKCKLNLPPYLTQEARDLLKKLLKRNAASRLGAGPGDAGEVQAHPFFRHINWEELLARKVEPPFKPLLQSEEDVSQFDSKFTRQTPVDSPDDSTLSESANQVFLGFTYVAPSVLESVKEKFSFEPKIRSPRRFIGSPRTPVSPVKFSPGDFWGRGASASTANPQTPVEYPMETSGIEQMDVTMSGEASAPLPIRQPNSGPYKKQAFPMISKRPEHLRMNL

NC(=O)Nc1cc(-c2cccc(F)c2)sc1C(=O)N[C@@H]1CCCNC1
kinase still bound, per cent of control [1]: 76%
kinase still bound, per cent of control [2]: 100%
kinase still bound, per cent of control [3]: 22%
kinase still bound, per cent of control [4]: 0.7%
kinase still bound, per cent of control [5]: 3.4%
kinase still bound, per cent of control [6]: 2.8%
kinase still bound, per cent of control [7]: 0.2%
kinase still bound, per cent of control [8]: 6.7%
kinase still bound, per cent of control [9]: 92%
kinase still bound, per cent of control [10]: 74%
kinase still bound, per cent of control [11]: 3.8%
kinase still bound, per cent of control [12]: 0.05%
kinase still bound, per cent of control [13]: 5.4%
kinase still bound, per cent of control [14]: 56%
kinase still bound, per cent of control [15]: 88%
kinase still bound, per cent of control [16]: 3.4%
kinase still bound, per cent of control [17]: 13%
kinase still bound, per cent of control [18]: 13%
kinase still bound, per cent of control [19]: 12%
kinase still bound, per cent of control [20]: 22%
kinase still bound, per cent of control [21]: 62%
kinase still bound, per cent of control [22]: 9.7%
kinase still bound, per cent of control [23]: 25%
kinase still bound, per cent of control [24]: 0%
kinase still bound, per cent of control [25]: 0.4%
kinase still bound, per cent of control [26]: 3.3%
kinase still bound, per cent of control [27]: 100%
kinase still bound, per cent of control [28]: 22%
kinase still bound, per cent of control [29]: 80%
kinase still bound, per cent of control [30]: 48%
kinase still bound, per cent of control [31]: 0.2%
kinase still bound, per cent of control [32]: 0%
kinase still bound, per cent of control [33]: 2%
kinase still bound, per cent of control [34]: 6.4%
kinase still bound, per cent of control [35]: 0.05%
kinase still bound, per cent of control [36]: 1.4%
kinase still bound, per cent of control [37]: 1%
kinase still bound, per cent of control [38]: 4.4%
kinase still bound, per cent of control [39]: 0.1%

N#CCNC(=O)c1ccc(-c2ccnc(Nc3ccc(N4CCOCC4)cc3)n2)cc1
kinase still bound, per cent of control [1]: 47%
kinase still bound, per cent of control [2]: 100%
kinase still bound, per cent of control [3]: 12%
kinase still bound, per cent of control [4]: 18%
kinase still bound, per cent of control [5]: 100%
kinase still bound, per cent of control [6]: 100%
kinase still bound, per cent of control [7]: 40%
kinase still bound, per cent of control [8]: 34%
kinase still bound, per cent of control [9]: 100%
kinase still bound, per cent of control [10]: 42%
kinase still bound, per cent of control [11]: 100%
kinase still bound, per cent of control [12]: 100%
kinase still bound, per cent of control [13]: 41%
kinase still bound, per cent of control [14]: 0.45%
kinase still bound, per cent of control [15]: 100%
kinase still bound, per cent of control [16]: 100%
kinase still bound, per cent of control [40]: 100%
kinase still bound, per cent of control [17]: 91%
kinase still bound, per cent of control [18]: 15%
kinase still bound, per cent of control [19]: 17%
kinase still bound, per cent of control [20]: 100%
kinase still bound, per cent of control [21]: 100%
kinase still bound, per cent of control [22]: 100%
kinase still bound, per cent of control [23]: 100%
kinase still bound, per cent of control [24]: 40%
kinase still bound, per cent of control [25]: 100%
kinase still bound, per cent of control [26]: 100%
kinase still bound, per cent of control [27]: 100%
kinase still bound, per cent of control [28]: 100%
kinase still bound, per cent of control [29]: 9.4%
kinase still bound, per cent of control [30]: 100%
kinase still bound, per cent of control [31]: 42%
kinase still bound, per cent of control [32]: 100%
kinase still bound, per cent of control [33]: 100%
kinase still bound, per cent of control [34]: 100%
kinase still bound, per cent of control [35]: 100%
kinase still bound, per cent of control [36]: 1.6%
kinase still bound, per cent of control [37]: 93%
kinase still bound, per cent of control [38]: 47%
kinase still bound, per cent of control [39]: 59%

COCC(=O)NC/C=C/c1ccc2ncnc(Nc3ccc(Oc4ccc(C)nc4)c(C)c3)c2c1
kinase still bound, per cent of control [1]: 84%
kinase still bound, per cent of control [2]: 100%
kinase still bound, per cent of control [3]: 100%
kinase still bound, per cent of control [4]: 67%
kinase still bound, per cent of control [5]: 73%
kinase still bound, per cent of control [6]: 100%
kinase still bound, per cent of control [7]: 87%
kinase still bound, per cent of control [8]: 100%
kinase still bound, per cent of control [9]: 100%
kinase still bound, per cent of control [10]: 96%
kinase still bound, per cent of control [11]: 55%
kinase still bound, per cent of control [12]: 59%
kinase still bound, per cent of control [13]: 89%
kinase still bound, per cent of control [14]: 83%
kinase still bound, per cent of control [15]: 100%
kinase still bound, per cent of control [16]: 98%
kinase still bound, per cent of control [40]: 100%
kinase still bound, per cent of control [17]: 100%
kinase still bound, per cent of control [19]: 100%
kinase still bound, per cent of control [20]: 100%
kinase still bound, per cent of control [21]: 93%
kinase still bound, per cent of control [22]: 92%
kinase still bound, per cent of control [23]: 100%
kinase still bound, per cent of control [24]: 100%
kinase still bound, per cent of control [25]: 86%
kinase still bound, per cent of control [26]: 87%
kinase still bound, per cent of control [27]: 100%
kinase still bound, per cent of control [28]: 100%
kinase still bound, per cent of control [29]: 82%
kinase still bound, per cent of control [30]: 100%
kinase still bound, per cent of control [31]: 89%
kinase still bound, per cent of control [32]: 100%
kinase still bound, per cent of control [33]: 100%
kinase still bound, per cent of control [34]: 65%
kinase still bound, per cent of control [35]: 97%
kinase still bound, per cent of control [36]: 100%
kinase still bound, per cent of control [37]: 92%
kinase still bound, per cent of control [38]: 100%
kinase still bound, per cent of control [39]: 89%

CNC(=O)c1cc(Oc2ccc(NC(=O)Nc3ccc(Cl)c(C(F)(F)F)c3)cc2)ccn1
kinase still bound, per cent of control [1]: 77%
kinase still bound, per cent of control [2]: 100%
kinase still bound, per cent of control [3]: 80%
kinase still bound, per cent of control [4]: 100%
kinase still bound, per cent of control [5]: 78%
kinase still bound, per cent of control [6]: 85%
kinase still bound, per cent of control [7]: 96%
kinase still bound, per cent of control [8]: 95%
kinase still bound, per cent of control [9]: 90%
kinase still bound, per cent of control [10]: 100%
kinase still bound, per cent of control [11]: 100%
kinase still bound, per cent of control [12]: 70%
kinase still bound, per cent of control [13]: 87%
kinase still bound, per cent of control [14]: 75%
kinase still bound, per cent of control [15]: 57%
kinase still bound, per cent of control [16]: 42%
kinase still bound, per cent of control [40]: 87%
kinase still bound, per cent of control [17]: 65%
kinase still bound, per cent of control [19]: 0.6%
kinase still bound, per cent of control [20]: 97%
kinase still bound, per cent of control [21]: 30%
kinase still bound, per cent of control [22]: 57%
kinase still bound, per cent of control [23]: 100%
kinase still bound, per cent of control [24]: 100%
kinase still bound, per cent of control [25]: 7.2%
kinase still bound, per cent of control [26]: 83%
kinase still bound, per cent of control [27]: 100%
kinase still bound, per cent of control [28]: 81%
kinase still bound, per cent of control [29]: 79%
kinase still bound, per cent of control [30]: 98%
kinase still bound, per cent of control [31]: 42%
kinase still bound, per cent of control [32]: 84%
kinase still bound, per cent of control [33]: 83%
kinase still bound, per cent of control [34]: 63%
kinase still bound, per cent of control [36]: 80%
kinase still bound, per cent of control [37]: 100%
kinase still bound, per cent of control [38]: 100%
kinase still bound, per cent of control [39]: 27%
